Reference: US9682955B2, “Quinazoline derivatives useful as CB-1 inverse agonists” (Janssen Pharmaceutica NV, priority 2014, dated 2017)

Experiments:
[1] = molecular target: Human CB2R (Cannabanoid receptor 2) (Homo sapiens (Human), UniProt P34972); experiment: CB-2 in vitro cAMP assay (HTRF); type: cell-based; conditions: mean where tested more than once
Source text: (§1) CB1 and CB2 receptors are Gi-coupled GPCR. Activation of CB1 and CB2 receptors results in a decrease in cAMP production. An inverse agonist of the CB1 or CB2 receptor results in the opposite effect, an increase of cAMP production. The principle of this assay is based on HTRF® technology (Homogeneous Time-Resolved Fluorescence). The method is a competitive immunoassay between native cAMP produced by cells and the cAMP labeled with the fluorophore d2. The tracer binding is quantified by a Mab anti-cAMP labeled with Eu3+TBP-NHS Cryptate (supplied as part of the assay kit). The specific signal (i.e. energy transfer) is inversely proportional to the concentration of cAMP in the standard or sample.
(§2) Human CB1R (Cannabanoid receptor 1) was stably transfected in HEK-293 cells (DiscoveRx, cat: 93-0200C1). Human CB2R (Cannabanoid receptor 2) was stably transfected in HEK-293 cells (DiscoveRx, cat: 93-0201C1). Cell cultures were maintained in media: DMEM (Invitrogen Cat#12430-054) supplemented with 10% HI FBS (Invitrogen Cat#16140-071), 1% L-glutamine (Invitrogen Cat#25030-081), 0.2 mg/ml Hygromycin B (Invitrogen Cat#10687-010), 600 μg/mL G418 (Invitrogen Cat#10131-035), and 1× Penn/Strep (Invitrogen 15140-122). After cell expansion, aliquots were cryo-stored in media containing 5% DMSO (Pierce Cat#20684).
(§3) One day prior to experiments media was warmed to 37° C. and the cryo-stored cells were thawed in a 37° C. water bath. The cells were then added to media (10× volume) and the mixture was centrifugated at 1000 RPM for 5 min. The supernate was removed and the cells were re-suspended in media. A sample of the cell suspension was evaluated on a Cedex XS automated cell counter (Innovatis Systems) to determine viable cells/ml. Additional media was added to the cells to achieve a final cell density of 4E5 cells/mL. The cells were then plated into 384 well PDL white solid bottom plates (Greiner, Cat#781945) at 20 μL per well using a Multidrop (Thermo Scientific). Cells were removed from Row P (location of cAMP standards). Two columns of cells were plated into a clear bottom 384 well PDL coated plate (Greiner, Cat#781944) to view confluence the day of the assay. The cell plates were lidded and stored for 15 minutes in a hood, then transferred to an incubator (37° C., 5% CO2, 95% humidity) overnight.
(§4) DMSO was added to all wells of 384 well V bottom polystyrene plate (Greiner, Cat#781280) except to columns 1 and 13, rows O and P and wells M13-M23 and N13-N23. Test compounds (60 μL, 10 mM) were added to Column 1 and 13 (A1 through N1 and A13 through L13). Test compounds were serially diluted 1/3 by transferring and mixing 20 μl sample with 40 μL DMSO.
(§5) DMSO (40 μL) was added to wells of 384 well V bottom polystyrene plate: O2 through O11, M14 through M23, N14 through N23, and O14 through O23. AM630 (also known as [6-iodo-2-methyl-1-[2-(4-morpholinyl)ethyl]-1H-indol-3-yl](4-methoxyphenyl)-methanone, Cayman Chemical, Cat#10006974) (60 μL, 10 mM) was added to O1; and 1-(2,4-dichlorophenyl)-7-[(4-fluorophenyl)methylene]-4,5,6,7-tetrahydro-N-1-piperidinyl-1H-indazole-3-carboxamide (60 μL, 10 mM) was added to N13. The control was serially diluted 1/3 by transferring and mixing 20 μl sample with 40 μL DMSO. This process resulted 11 doses per control, 10 mM to […].
(§6) Cells plated the day prior to the assay in clear bottom plates were viewed on an inverse microscope to ensure confluency in the range of 60-75%. […]

[2] = molecular target: Human CB1R (Cannabanoid receptor 1) (Homo sapiens (Human), UniProt P21554); experiment: CB-1 in vitro cAMP assay (HTRF); type: cell-based; conditions: mean where tested more than once
Source text: as §1, §2, §3, §4, §5, §6

Human CB1R (Cannabanoid receptor 1), sequence (P21554 whole entry): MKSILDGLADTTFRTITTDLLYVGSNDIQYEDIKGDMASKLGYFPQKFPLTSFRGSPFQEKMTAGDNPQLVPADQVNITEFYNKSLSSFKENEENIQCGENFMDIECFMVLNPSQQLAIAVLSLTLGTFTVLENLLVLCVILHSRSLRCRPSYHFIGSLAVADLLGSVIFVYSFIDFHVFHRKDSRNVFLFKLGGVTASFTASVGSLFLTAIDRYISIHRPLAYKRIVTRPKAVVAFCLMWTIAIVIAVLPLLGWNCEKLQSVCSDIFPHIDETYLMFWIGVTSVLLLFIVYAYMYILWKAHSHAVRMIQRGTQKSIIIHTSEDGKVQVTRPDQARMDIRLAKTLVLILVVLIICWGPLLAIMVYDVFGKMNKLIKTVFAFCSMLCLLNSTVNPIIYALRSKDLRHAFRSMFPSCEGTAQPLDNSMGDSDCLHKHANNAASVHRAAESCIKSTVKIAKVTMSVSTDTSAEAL
Human CB2R (Cannabanoid receptor 2), sequence (P34972 whole entry): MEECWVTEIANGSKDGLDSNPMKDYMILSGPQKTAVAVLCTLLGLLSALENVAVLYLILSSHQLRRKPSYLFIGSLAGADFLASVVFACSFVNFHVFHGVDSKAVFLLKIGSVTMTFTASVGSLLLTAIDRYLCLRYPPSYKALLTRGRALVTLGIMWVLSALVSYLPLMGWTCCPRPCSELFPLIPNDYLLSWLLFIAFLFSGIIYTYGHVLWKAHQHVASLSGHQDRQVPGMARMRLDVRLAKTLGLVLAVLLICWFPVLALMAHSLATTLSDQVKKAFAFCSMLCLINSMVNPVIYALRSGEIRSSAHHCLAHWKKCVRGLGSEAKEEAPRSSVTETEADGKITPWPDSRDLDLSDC

NCCCCOc1nc(NCc2cccc(C(F)(F)F)c2)c2cc(C(c3ccc(Cl)cc3)c3ccc(Cl)cc3)ccc2n1 [Compound #31, 2-(4-aminobutoxy)-6-(bis(4-chlorophenyl)methyl)-N-(3-(trifluoromethyl)benzyl)quinazolin-4-amine]
EC50 [1]: 4120 nM | EC50 [2]: 77 nM

Oc1ccc(N2CCC(Nc3ncnc4ccc(C(c5ccc(Cl)cc5)c5ccc(Cl)cc5)cc34)CC2)cc1 [Compound #32, 4-(4-((6-(bis(4-chlorophenyl)methyl)quinazolin-4-yl)amino)piperidin-1-yl)phenol]
EC50 [1]: 371 nM | EC50 [2]: 15 nM

CS(=O)(=O)NCCOc1nc(NC2CCN(S(=O)(=O)c3ccc(C(=O)O)cc3)CC2)c2cc(C(c3ccc(Cl)cc3)c3ccc(Cl)cc3)ccc2n1 [Compound #33, 4-((4-((6-(bis(4-chlorophenyl)methyl)-2-(2-(methylsulfonamido)ethoxy)quinazolin-4-yl)amino)piperidin-1-yl)sulfonyl)benzoic acid]
EC50 [1]: 917 nM | EC50 [2]: 227 nM

NC(=O)c1cccc(CN2CCC(Nc3ncnc4ccc(C(c5ccc(Cl)cc5)c5ccc(Cl)cc5)cc34)CC2)c1 [Compound #36, 3-((4-((6-(bis(4-chlorophenyl)methyl)quinazolin-4-yl)amino)piperidin-1-yl)methyl)benzamide]
EC50 [1]: 3640 nM | EC50 [2]: 14 nM

O=C(O)c1cccc(CN2CCC(Nc3ncnc4ccc(C(c5ccc(Cl)cc5)c5ccc(Cl)cc5)cc34)CC2)c1 [Compound #37, 3-((4-((6-(bis(4-chlorophenyl)methyl)quinazolin-4-yl)amino)piperidin-1-yl)methyl)benzoic acid]
EC50 [1]: 6760 nM | EC50 [2]: 146 nM

O=C(O)c1ccc(S(=O)(=O)N2CCC(Nc3nc(OCCO)nc4ccc(C(c5ccc(Cl)cc5)c5ccc(Cl)cc5)cc34)CC2)cc1 [Compound #39, 4-((4-((6-(bis(4-chlorophenyl)methyl)-2-(2-hydroxyethoxy)quinazolin-4-yl)amino)piperidin-1-yl)sulfonyl)benzoic acid]
EC50 [1]: 514 nM | EC50 [2]: 41 nM

O=C(COc1nc(NCc2cccc(C(F)(F)F)c2)c2cc(C(c3ccc(Cl)cc3)c3ccc(Cl)cc3)ccc2n1)NCCO [Compound #40, 2-((6-(bis(4-chlorophenyl)methyl)-4-((3-(trifluoromethyl)benzyl)amino)quinazolin-2-yl)oxy)-N-(2-hydroxyethyl)acetamide]
EC50 [1]: 1670 nM | EC50 [2]: 10 nM

O=C(NC(CO)(CO)CO)c1ccc(S(=O)(=O)N2CCC(Nc3ncnc4ccc(C(c5ccc(Cl)cc5)c5ccc(Cl)cc5)cc34)CC2)cc1 [Compound #41, 4-((4-((6-(Bis(4-chlorophenyl)methyl)quinazolin-4-yl)amino)piperidin-1-yl)sulfonyl)-N-(1,3-dihydroxy-2-(hydroxymethyl)propan-2-yl)benzamide]
EC50 [1]: 1470 nM | EC50 [2]: 8 nM

COC(=O)c1ccc(CN2CCC(Nc3ncnc4ccc(C(c5ccc(Cl)cc5)c5ccc(Cl)cc5)cc34)CC2)cc1 [Compound #43, Methyl 4-((4-((6-(bis(4-chlorophenyl)methyl)quinazolin-4-yl)amino)piperidin-1-yl)methyl)benzoate]
EC50 [1]: > 10000 nM | EC50 [2]: 59 nM

O=C(c1ccc(S(=O)(=O)NCCO)cc1)N1CCC(Nc2ncnc3ccc(C(c4ccc(Cl)cc4)c4ccc(Cl)cc4)cc23)CC1 [Compound #45, 4-(4-((6-(bis(4-chlorophenyl)methyl)quinazolin-4-yl)amino)piperidine-1-carbonyl)-N-(2-hydroxyethyl)benzenesulfonamide]
EC50 [1]: 1200 nM | EC50 [2]: 222 nM

COc1nc(NC2CCN(S(=O)(=O)c3ccc(C(=O)O)cc3)CC2)c2cc(C(c3ccc(Cl)cc3)c3ccc(Cl)cc3)ccc2n1 [Compound #46, 4-((4-((6-(bis(4-chlorophenyl)methyl)-2-methoxyquinazolin-4-yl)amino)piperidin-1-yl)sulfonyl)benzoic acid]
EC50 [1]: 616 nM | EC50 [2]: 31 nM

O=C(O)CCOCCOc1nc(NCc2cccc(C(F)(F)F)c2)c2cc(C(c3ccc(Cl)cc3)c3ccc(Cl)cc3)ccc2n1 [Compound #48, 3-(2-((6-(bis(4-chlorophenyl)methyl)-4-((3-(trifluoromethyl)benzyl)amino)quinazolin-2-yl)oxy)ethoxy)propanoic acid]
EC50 [1]: 806 nM | EC50 [2]: 67 nM

OCC(CO)COc1nc(NCc2cccc(C(F)(F)F)c2)c2cc(C(c3ccc(Cl)cc3)c3ccc(Cl)cc3)ccc2n1 [Compound #49, 2-(((6-(bis(4-chlorophenyl)methyl)-4-((3-(trifluoromethyl)benzyl)amino)quinazolin-2-yl)oxy)methyl)propane-1,3-diol]
EC50 [1]: 1930 nM | EC50 [2]: 4 nM

N#CCCOCCOc1nc(NCc2cccc(C(F)(F)F)c2)c2cc(C(c3ccc(Cl)cc3)c3ccc(Cl)cc3)ccc2n1 [Compound #50, 3-(2-((6-(bis(4-chlorophenyl)methyl)-4-((3-(trifluoromethyl)benzyl)amino)quinazolin-2-yl)oxy)ethoxy)propanenitrile]
EC50 [1]: > 10000 nM | EC50 [2]: 11 nM

N#Cc1ccc(S(=O)(=O)N2CCC(Nc3ncnc4ccc(C(c5ccc(Cl)cc5)c5ccc(Cl)cc5)cc34)CC2)cc1 [Compound #52, 4-((4-((6-(bis(4-chlorophenyl)methyl)quinazolin-4-yl)amino)piperidin-1-yl)sulfonyl)benzonitrile]
EC50 [1]: > 10000 nM | EC50 [2]: 12 nM

OCCCCOc1nc(NCc2cccc(C(F)(F)F)c2)c2cc(C(c3ccc(Cl)cc3)c3ccc(Cl)cc3)ccc2n1 [Compound #53, 4-((6-(bis(4-chlorophenyl)methyl)-4-((3-(trifluoromethyl)benzyl)amino)quinazolin-2-yl)oxy)butan-1-ol]
EC50 [1]: 3700 nM | EC50 [2]: 42 nM

OCCOc1nc(NCc2cccc(C(F)(F)F)c2)c2cc(C(c3ccc(Cl)cc3)c3ccc(Cl)cc3)ccc2n1 [Compound #55, 2-((6-(bis(4-chlorophenyl)methyl)-4-((3-(trifluoromethyl)benzyl)amino)quinazolin-2-yl)oxy)ethanol]
EC50 [1]: 4440 nM | EC50 [2]: 13 nM

NC(=O)c1cccc(CNc2ncnc3ccc(C(c4ccc(Cl)cc4)c4ccc(Cl)cc4)cc23)c1 [Compound #57, 3-(((6-(bis(4-chlorophenyl)methyl)quinazolin-4-yl)amino)methyl)benzamide]
EC50 [1]: 4950 nM | EC50 [2]: 215 nM

COc1ccc(C(c2ccc(Cl)cc2)c2ccc3ncnc(NC4CCN(c5ccccc5)CC4)c3c2)cc1 (centres unmarked) [Compound #58, 6-((4-chlorophenyl)(4-methoxyphenyl)methyl)-N-(1-phenylpiperidin-4-yl)quinazolin-4-amine]
EC50 [1]: 67 nM | EC50 [2]: 0.5 nM

O=C(O)c1cccc(CNc2ncnc3ccc(C(c4ccc(Cl)cc4)c4ccc(Cl)cc4)cc23)c1 [Compound #59, 3-(((6-(bis(4-chlorophenyl)methyl)quinazolin-4-yl)amino)methyl)benzoic acid]
EC50 [1]: > 10000 nM | EC50 [2]: 4430 nM

COC(=O)c1cccc(CNc2ncnc3ccc(C(c4ccc(Cl)cc4)c4ccc(Cl)cc4)cc23)c1 [Compound #62, Methyl 3-(((6-(bis(4-chlorophenyl)methyl)quinazolin-4-yl)amino)methyl)benzoate]
EC50 [1]: 8080 nM | EC50 [2]: 14 nM

CC(C)OC(=O)OCOC(=O)c1ccc(S(=O)(=O)N2CCC(Nc3ncnc4ccc(C(c5ccc(Cl)cc5)c5ccc(Cl)cc5)cc34)CC2)cc1 [Compound #64, ((Isopropoxycarbonyl)oxy)methyl 4-((4-((6-(bis(4-chlorophenyl)methyl)quinazolin-4-yl)amino)piperidin-1-yl)sulfonyl)benzoate]
EC50 [1]: > 10000 nM | EC50 [2]: 15 nM
